{"source": "patent US6355799B1", "about": "“Substituted benzene compounds, process for their preparation, and herbicidal and defoliant compositions containing them” (ISK Americas Incorporated, priority 1997, dated 2002)", "format_in_all_cases": "in vivo", "key": {"[1]": {"tested_on": "ivyleaf morningglory (Ipomoea hederacea, IPOHE)", "assay": "Pre-emerge test, greenhouse herbicide activity screening", "settings": "rating scale 0-100, 14 days after application", "in_short": "(§1)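 Applied at 15–1000 g ai/ha from acetone in 187 l/ha spray volume. Post-emergence applications included 0.25% v/v non-ionic surfactant and reached plants sown 8–21 days before. Pre-emergence applications were incorporated by surface watering. Efficacy or crop damage was rated on a 0–100 scale after 14 days.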"}, "[2]": {"tested_on": "common ragweed (Ambrosia artemisizfolia L., AMBEL)", "assay": "Pre-emerge test, greenhouse herbicide activity screening", "settings": "rating scale 0-100, 14 days after application", "in_short": "as §1"}, "[3]": {"tested_on": "velvetleaf (Abutilon theophrasti, ABUTH)", "assay": "Pre-emerge test, greenhouse herbicide activity screening", "settings": "rating scale 0-100, 14 days after application", "in_short": "as §1"}, "[4]": {"tested_on": "barnyardgrass (Echinochloa crus-galli, ECHCG)", "assay": "Pre-emerge test, greenhouse herbicide activity screening", "settings": "rating scale 0-100, 14 days after application", "in_short": "as §1"}, "[5]": {"tested_on": "lambsquarters (Chenopodium album, CHEAL)", "assay": "Pre-emerge test, greenhouse herbicide activity screening", "settings": "rating scale 0-100, 14 days after application", "in_short": "as §1"}, "[6]": {"tested_on": "johnsongrass (Sorghum halepense, SORHA)", "assay": "Pre-emerge test, greenhouse herbicide activity screening", "settings": "rating scale 0-100, 14 days after application", "in_short": "as §1"}, "[7]": {"tested_on": "green foxtail (Setaria viridis, SETVI)", "assay": "Pre-emerge test, greenhouse herbicide activity screening", "settings": "rating scale 0-100, 14 days after application", "in_short": "as §1"}, "[8]": {"tested_on": "sicklepod (Cassia obtusifolia, CASOB)", "assay": "Pre-emerge test, greenhouse herbicide activity screening", "settings": "rating scale 0-100, 14 days after application", "in_short": "as §1"}, "[9]": {"tested_on": "large crabgrass (Digitaria sanguinalis, DIGSA)", "assay": "Pre-emerge test, greenhouse herbicide activity screening", "settings": "rating scale 0-100, 14 days after application", "in_short": "as §1"}, "[10]": {"tested_on": "ivyleaf morningglory (Ipomoea hederacea, IPOHE)", "assay": "Post-emerge test, greenhouse herbicide activity screening", "settings": "rating scale 0-100 (0 no damage, 100 complete death), 14 days after application", "in_short": "(§2)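 Plants grown in 10 cm pots of sandy loam mix received acetone-dissolved compounds through a moving flat-fan nozzle. Doses ranged from 15 to 1000 g ai/ha. Pre-emerge pots were seeded one day earlier, post-emerge pots 8–21 days earlier. Fourteen days on, each pot was graded 0–100 for damage.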"}, "[11]": {"tested_on": "common ragweed (Ambrosia artemisizfolia L., AMBEL)", "assay": "Post-emerge test, greenhouse herbicide activity screening", "settings": "rating scale 0-100 (0 no damage, 100 complete death), 14 days after application", "in_short": "as §2"}, "[12]": {"tested_on": "velvetleaf (Abutilon theophrasti, ABUTH)", "assay": "Post-emerge test, greenhouse herbicide activity screening", "settings": "rating scale 0-100 (0 no damage, 100 complete death), 14 days after application", "in_short": "as §2"}, "[13]": {"tested_on": "barnyardgrass (Echinochloa crus-galli, ECHCG)", "assay": "Post-emerge test, greenhouse herbicide activity screening", "settings": "rating scale 0-100 (0 no damage, 100 complete death), 14 days after application", "in_short": "as §2"}, "[14]": {"tested_on": "lambsquarters (Chenopodium album, CHEAL)", "assay": "Post-emerge test, greenhouse herbicide activity screening", "settings": "rating scale 0-100 (0 no damage, 100 complete death), 14 days after application", "in_short": "as §2"}, "[15]": {"tested_on": "redroot pigweed (Amaranthus retroflexus, AMARE)", "assay": "Post-emerge test, greenhouse herbicide activity screening", "settings": "rating scale 0-100 (0 no damage, 100 complete death), 14 days after application", "in_short": "as §2"}, "[16]": {"tested_on": "green foxtail (Setaria viridis, SETVI)", "assay": "Post-emerge test, greenhouse herbicide activity screening", "settings": "rating scale 0-100 (0 no damage, 100 complete death), 14 days after application", "in_short": "as §2"}, "[17]": {"tested_on": "sicklepod (Cassia obtusifolia, CASOB)", "assay": "Post-emerge test, greenhouse herbicide activity screening", "settings": "rating scale 0-100 (0 no damage, 100 complete death), 14 days after application", "in_short": "as §2"}, "[18]": {"tested_on": "large crabgrass (Digitaria sanguinalis, DIGSA)", "assay": "Post-emerge test, greenhouse herbicide activity screening", "settings": "rating scale 0-100 (0 no damage, 100 complete death), 14 days after application", "in_short": "as §2"}, "[19]": {"tested_on": "field corn (Zea mays L., var. Dekalb 535, CORN)", "assay": "Pre-emerge test, crop safety", "settings": "rating scale 0-100, 14 days after application", "in_short": "as §2"}, "[20]": {"tested_on": "upland rice (Oryza sp., var. Tebonnet, RICE)", "assay": "Pre-emerge test, crop safety", "settings": "rating scale 0-100, 14 days after application", "in_short": "as §2"}, "[21]": {"tested_on": "field corn (Zea mays L., var. Dekalb 535, CORN)", "assay": "Post-emerge test, crop safety", "settings": "rating scale 0-100 (0 no damage, 100 complete death), 14 days after application", "in_short": "as §1"}, "[22]": {"tested_on": "upland rice (Oryza sp., var. Tebonnet, RICE)", "assay": "Post-emerge test, crop safety", "settings": "rating scale 0-100 (0 no damage, 100 complete death), 14 days after application", "in_short": "as §1"}, "[23]": {"tested_on": "redroot pigweed (Amaranthus retroflexus, AMARE)", "assay": "Pre-emerge test, greenhouse herbicide activity screening", "settings": "rating scale 0-100, 14 days after application", "in_short": "as §2"}}, "data": [{"smiles": "CCCCCCOC(=O)C(Cl)Cc1c(OC)c(Cl)cc(F)c1-n1c(=O)cc(C(F)(F)F)n(C)c1=O", "note": "(single isomer, unassigned) [14-12]", "values": [{"measurement": "Pre-emerge herbicidal activity, phytotoxicity rating IPOHE", "setting": "[1]; 63 g ai/ha", "result": 0}, {"measurement": "Pre-emerge herbicidal activity, phytotoxicity rating IPOHE", "setting": "[1]; 250 g ai/ha", "result": 0}, {"measurement": "Pre-emerge herbicidal activity, phytotoxicity rating AMBEL", "setting": "[2]; 63 g ai/ha", "result": 0}, {"measurement": "Pre-emerge herbicidal activity, phytotoxicity rating AMBEL", "setting": "[2]; 250 g ai/ha", "result": 0}, {"measurement": "Pre-emerge herbicidal activity, phytotoxicity rating ABUTH", "setting": "[3]; 63 g ai/ha", "result": 0}, {"measurement": "Pre-emerge herbicidal activity, phytotoxicity rating ABUTH", "setting": "[3]; 250 g ai/ha", "result": 20}, {"measurement": "Pre-emerge herbicidal activity, phytotoxicity rating ECHCG", "setting": "[4]; 63 g ai/ha", "result": 0}, {"measurement": "Pre-emerge herbicidal activity, phytotoxicity rating ECHCG", "setting": "[4]; 250 g ai/ha", "result": 0}, {"measurement": "Pre-emerge herbicidal activity, phytotoxicity rating CHEAL", "setting": "[5]; 63 g ai/ha", "result": 50}, {"measurement": "Pre-emerge herbicidal activity, phytotoxicity rating CHEAL", "setting": "[5]; 250 g ai/ha", "result": 60}, {"measurement": "Pre-emerge herbicidal activity, phytotoxicity rating SORHA", "setting": "[6]; 63 g ai/ha", "result": 0}, {"measurement": "Pre-emerge herbicidal activity, phytotoxicity rating SORHA", "setting": "[6]; 250 g ai/ha", "result": 0}, {"measurement": "Pre-emerge herbicidal activity, phytotoxicity rating SETVI", "setting": "[7]; 63 g ai/ha", "result": 0}, {"measurement": "Pre-emerge herbicidal activity, phytotoxicity rating SETVI", "setting": "[7]; 250 g ai/ha", "result": 0}, {"measurement": "Pre-emerge herbicidal activity, phytotoxicity rating CASOB", "setting": "[8]; 63 g ai/ha", "result": 0}, {"measurement": "Pre-emerge herbicidal activity, phytotoxicity rating CASOB", "setting": "[8]; 250 g ai/ha", "result": 0}, {"measurement": "Pre-emerge herbicidal activity, phytotoxicity rating DIGSA", "setting": "[9]; 63 g ai/ha", "result": 0}, {"measurement": "Pre-emerge herbicidal activity, phytotoxicity rating DIGSA", "setting": "[9]; 250 g ai/ha", "result": 100}, {"measurement": "Post-emerge Herbicidal Activity, phytotoxicity rating IPOHE", "setting": "[10]; Rate 63 g ai/ha", "result": 40}, {"measurement": "Post-emerge Herbicidal Activity, phytotoxicity rating IPOHE", "setting": "[10]; Rate 250 g ai/ha", "result": 70}, {"measurement": "Post-emerge Herbicidal Activity, phytotoxicity rating AMBEL", "setting": "[11]; Rate 63 g ai/ha", "result": 80}, {"measurement": "Post-emerge Herbicidal Activity, phytotoxicity rating AMBEL", "setting": "[11]; Rate 250 g ai/ha", "result": 80}, {"measurement": "Post-emerge Herbicidal Activity, phytotoxicity rating ABUTH", "setting": "[12]; Rate 63 g ai/ha", "result": 10}, {"measurement": "Post-emerge Herbicidal Activity, phytotoxicity rating ABUTH", "setting": "[12]; Rate 250 g ai/ha", "result": 85}, {"measurement": "Post-emerge Herbicidal Activity, phytotoxicity rating ECHCG", "setting": "[13]; Rate 63 g ai/ha", "result": 98}, {"measurement": "Post-emerge Herbicidal Activity, phytotoxicity rating ECHCG", "setting": "[13]; Rate 250 g ai/ha", "result": 99}, {"measurement": "Post-emerge Herbicidal Activity, phytotoxicity rating CHEAL", "setting": "[14]; Rate 63 g ai/ha", "result": 90}, {"measurement": "Post-emerge Herbicidal Activity, phytotoxicity rating CHEAL", "setting": "[14]; Rate 250 g ai/ha", "result": 99}, {"measurement": "Post-emerge Herbicidal Activity, phytotoxicity rating AMARE", "setting": "[15]; Rate 63 g ai/ha", "result": 85}, {"measurement": "Post-emerge Herbicidal Activity, phytotoxicity rating AMARE", "setting": "[15]; Rate 250 g ai/ha", "result": 90}, {"measurement": "Post-emerge Herbicidal Activity, phytotoxicity rating SETVI", "setting": "[16]; Rate 63 g ai/ha", "result": 30}, {"measurement": "Post-emerge Herbicidal Activity, phytotoxicity rating SETVI", "setting": "[16]; Rate 250 g ai/ha", "result": 40}, {"measurement": "Post-emerge Herbicidal Activity, phytotoxicity rating CASOB", "setting": "[17]; Rate 63 g ai/ha", "result": 20}, {"measurement": "Post-emerge Herbicidal Activity, phytotoxicity rating CASOB", "setting": "[17]; Rate 250 g ai/ha", "result": 80}, {"measurement": "Post-emerge Herbicidal Activity, phytotoxicity rating DIGSA", "setting": "[18]; Rate 63 g ai/ha", "result": 50}, {"measurement": "Post-emerge Herbicidal Activity, phytotoxicity rating DIGSA", "setting": "[18]; Rate 250 g ai/ha", "result": 60}, {"measurement": "Pre-emerge phytotoxicity rating, crop damage CORN", "setting": "[19]; 63 g ai/ha", "result": 0}, {"measurement": "Pre-emerge phytotoxicity rating, crop damage CORN", "setting": "[19]; 250 g ai/ha", "result": 0}, {"measurement": "Pre-emerge phytotoxicity rating, crop damage RICE", "setting": "[20]; 63 g ai/ha", "result": 0}, {"measurement": "Pre-emerge phytotoxicity rating, crop damage RICE", "setting": "[20]; 250 g ai/ha", "result": 0}, {"measurement": "Post-emerge phytotoxicity rating CORN (crop damage)", "setting": "[21]; Rate 63 g ai/ha", "result": 30}, {"measurement": "Post-emerge phytotoxicity rating CORN (crop damage)", "setting": "[21]; Rate 250 g ai/ha", "result": 85}, {"measurement": "Post-emerge phytotoxicity rating RICE (crop damage)", "setting": "[22]; Rate 63 g ai/ha", "result": 0}, {"measurement": "Post-emerge phytotoxicity rating RICE (crop damage)", "setting": "[22]; Rate 250 g ai/ha", "result": 10}, {"measurement": "Pre-emerge herbicidal activity, phytotoxicity rating AMARE", "setting": "[23]; 63 g ai/ha", "result": 60}, {"measurement": "Pre-emerge herbicidal activity, phytotoxicity rating AMARE", "setting": "[23]; 250 g ai/ha", "result": 100}]}]}
